Results on 42 compounds are retold here after patent publication US8916702B2 (priority 2012, dated 2014).

pEC50: −log10 of the molar value. Where two headings read alike, the source gives them in different places.

For orientation: pEC50 means the negative decadic logarithm of the EC50, by convention in mol/L.

The assay relates to HCV pseudoparticles (genotype 1a HCV E1 and E2 envelope, H77C isolate). The assay is described as follows: microbe, parasite or virus in culture. It counts as cell-based. As to conditions: Hepatitis C virus.
Setting [1] is: Huh-7, 48 h, read-out: Activity (EC50 class), HCV pseudoparticles, Huh7 cells, luciferase 2 days after infection, average of duplicates.
Setting [2] is: Huh-7, 48 h, read-out: Activity (EC50 class), HCV pseudoparticle infection of Huh7 cells, luciferase 2 days after infection, EC50 expressed as class A/B.
Where [3] appears, read: Huh-7, 48 h, HCV pseudoparticle infection of Huh7 cells, luciferase 2 days after infection, average of duplicates.
Setting [4] is: Huh-7, 48 h, HCV pseudoparticles (genotype 1a, H77C) in Huh7 cells, average of duplicate, luciferase 2 days after infection.
The mark [5] stands for this setting: Huh-7, read-out: Activity (EC50 class), HCV pseudoparticles (genotype 1a, H77C) in Huh7 cells, EC50 expressed as class A/B.
The mark [6] stands for this setting: Huh-7, 48 h, HCV pseudoparticles, Huh7 cells, luciferase 2 days after infection, average of duplicates.

On to `O=C(NC[C@H](NC(=O)c1ccc(Nc2nc(NC3(c4ccc(Cl)cc4)CC3)nc(OCC(F)(F)F)n2)cc1)C(=O)O)C(=O)Nc1ccc(Oc2cccnc2)nc1` [Compound 3755], for which, under setting [1], the pEC50 is 8.00 to 11.00.
The same measure, in the same setting: to `COc1cc(NC(=O)C(=O)NCC(C)(C)CNC(=O)c2ccc(Nc3nc(NC4(c5ccc(Cl)cc5)CC4)nc(OCC(F)(F)F)n3)cc2)ccc1-c1ccccc1` [Compound 3679] belongs 8.00 to 11.00.
For the compound `COC(=O)[C@H](CCNC(=O)C(=O)Nc1cc[nH]n1)NC(=O)c1ccc(Nc2nc(NC3(c4ccc(Cl)cc4)CC3)nc(OCC(F)(F)F)n2)cc1` [Compound 1223], under setting [2], the pEC50 is 8.00 to 11.00.
On the same count and under the same terms, next, `O=C(NCC[C@H](NC(=O)c1ccc(Nc2nc(NC3(c4ccc(Cl)cc4)CC3)nc(OCC(F)(F)F)n2)cc1)C(=O)O)C(=O)NC1(Cc2ccccc2)CC1` [Compound 1346]: 8.00 to 11.00.
Take `O=C(NCC[C@H](NC(=O)c1ccc(Nc2nc(NC3(c4ccc(Cl)cc4)CC3)nc(OCC(F)(F)F)n2)cc1)C(=O)O)C(=O)NC1CCCCCC1` [Compound 1122]: the pEC50 under setting [2] was 8.00 to 11.00.
With `Cn1cnnc1-c1ccc(NC(=O)C(=O)NCC(C)(C)CNC(=O)c2ccc(Nc3nc(NC4(c5ccc(Cl)cc5)CC4)nc(OCC(F)(F)F)n3)cc2)cc1` [Compound 1601], the pEC50 reads like this: under setting [3], 10.52; under setting [2], 8.00 to 11.00.
Consider `COC(=O)[C@H](CNC(=O)C(=O)Nc1cccc(C(=O)c2ccccc2)c1)NC(=O)c1ccc(Nc2nc(NC3(c4ccc(Cl)cc4)CC3)nc(OCC(F)(F)F)n2)cc1` [Compound 3692], for which the pEC50 under setting [1] was 8.00 to 11.00.
For the compound `COC(=O)[C@H](CCNC(=O)C(=O)Nc1cccc(Oc2ccccn2)c1)NC(=O)c1ccc(Nc2nc(NC3(c4ccc(Cl)cc4)CC3)nc(OCC(F)(F)F)n2)cc1` [Compound 3602], the pEC50 under setting [1] was 8.00 to 11.00.
Take `Cc1cccc(C2CC2CNC(=O)C(=O)NCC[C@H](NC(=O)c2ccc(Nc3nc(NC4(c5ccc(Cl)cc5)CC4)nc(OCC(F)(F)F)n3)cc2)C(=O)O)c1` (stereo partly shown) [Compound 1434]: the pEC50 under setting [2] was 8.00 to 11.00.
Consider `Cn1ccc(NC(=O)C(=O)NC[C@H](NC(=O)c2ccc(Nc3nc(NC4(c5ccc(Cl)cc5)CC4)nc(OCC(F)(F)F)n3)cc2)C(=O)O)n1` [Compound 1351], for which the pEC50 under setting [2] is 8.00 to 11.00.
Consider `Cc1cc(NC(=O)C(=O)NCC(C)CNC(=O)c2ccc(Nc3nc(NC4(c5ccc(Cl)cc5)CC4)nc(OCC(F)(F)F)n3)cc2)no1` (stereo not shown) [Compound 3334], for which the pEC50 is, setting by setting: under setting [4], 10.21; under setting [5], 8.00 to 11.00.
As for `CC(C)(CNC(=O)C(=O)NCc1ccc(C(=O)c2ccccc2)cc1)CNC(=O)c1ccc(Nc2nc(NC3(c4ccc(Cl)cc4)CC3)nc(OCC(F)(F)F)n2)cc1` [Compound 3404], under setting [5], the pEC50 was 8.00 to 11.00.
Regarding `COC(=O)[C@H](CNC(=O)C(=O)N[C@H](C)C1CCCCC1)NC(=O)c1ccc(Nc2nc(NC3(c4ccc(Cl)cc4)CC3)nc(OCC(F)(F)F)n2)cc1` [Compound 1455], the pEC50 under setting [2] was 8.00 to 11.00.
As to `COC(=O)[C@H](CCNC(=O)C(=O)NNc1ccccc1)NC(=O)c1ccc(Nc2nc(NC3(c4ccc(Cl)cc4)CC3)nc(OCC(F)(F)F)n2)cc1` [Compound 1220], under setting [2], the pEC50 was 8.00 to 11.00.
Regarding `O=C(NCCc1ccccc1F)C(=O)NCC[C@H](NC(=O)c1ccc(Nc2nc(NC3(c4ccc(Cl)cc4)CC3)nc(OCC(F)(F)F)n2)cc1)C(=O)O` [Compound 1334], the pEC50 under setting [2] was 8.00 to 11.00.
`COC(=O)[C@@H](CCNC(=O)C(=O)NCC1(Cn2nc(C)cc2C)CC1)NC(=O)c1ccc(Nc2nc(NC3(c4ccc(Cl)cc4)CC3)nc(OCC(F)(F)F)n2)cc1` [Compound 1383]: under setting [2], the pEC50 is 8.00 to 11.00.
`O=C(NCC[C@H](NC(=O)c1ccc(Nc2nc(NC3(c4ccc(Cl)cc4)CC3)nc(OCC(F)(F)F)n2)cc1)C(=O)O)C(=O)NC1CCCCC1` [Compound 1179]: the pEC50 under setting [2] is 8.00 to 11.00.
On to `Cc1ccc(NC(=O)C(=O)NCC(C)(C)CNC(=O)c2ccc(Nc3nc(NC4(c5ccc(Cl)cc5)CC4)nc(OCc4ccc(C(C)(C)C)cc4)n3)cc2)cc1` [Compound 3841], for which the pEC50 under setting [1] was 8.00 to 11.00.
Turning to `CC(C)(CNC(=O)C(=O)Nc1ccc(Cl)cc1C(N)=O)CNC(=O)c1ccc(Nc2nc(NC3(c4ccc(Cl)cc4)CC3)nc(OCC(F)(F)F)n2)cc1` [Compound 3110], under setting [5], the pEC50 was 8.00 to 11.00.
As for `COC(=O)[C@H](CNC(=O)C(=O)Nc1ccc(C(=O)c2ccccc2)cc1)NC(=O)c1ccc(Nc2nc(NC3(c4ccc(Cl)cc4)CC3)nc(OCC(F)(F)F)n2)cc1` [Compound 3084], the pEC50 under setting [4] is 8.45 and the pEC50 under setting [5] was 8.00 to 11.00.
In the case of `CC(C)(CNC(=O)C(N)=O)CNC(=O)c1ccc(Nc2nc(NC3(c4ccc(Cl)cc4)CC3)nc(OCC(F)(F)F)n2)cc1` [Compound 1552, N^1-(3-(4-((4-((1-(4-chlorophenyl)cyclopropyl)amino)-6-(2,2,2-trifluoroethoxy)-1,3,5-triazin-2-yl)amino)benzamido)-2,2-dimethylpropyl)oxalamide], the pEC50 under setting [2] is 8.00 to 11.00.
On to `CCN(CC)CCOc1cccc(NC(=O)C(=O)NC[C@H](NC(=O)c2ccc(Nc3nc(NC4(c5ccc(Cl)cc5)CC4)nc(OCC(F)(F)F)n3)cc2)C(=O)Cl)c1` [Compound 3788], for which, under setting [1], the pEC50 is 8.00 to 11.00.
Regarding `COc1cc2nc(NC(=O)C(=O)NCC(C)(C)CNC(=O)c3ccc(Nc4nc(NC5(c6ccc(Cl)cc6)CC5)nc(OCC(F)(F)F)n4)cc3)sc2cc1OC` [Compound 3665], the negative logarithm of the EC50 (pEC50) under setting [1] was 8.00 to 11.00.
As to `COC(=O)[C@H](CCNC(=O)C(=O)NCC1(C(=O)OC)CC1)NC(=O)c1ccc(Nc2nc(NC3(c4ccc(Cl)cc4)CC3)nc(OCC(F)(F)F)n2)cc1` [Compound 1375], the pEC50 under setting [2] was 8.00 to 11.00.
Regarding `COc1cc2sc(NC(=O)C(=O)NCC(C)(C)CNC(=O)c3ccc(Nc4nc(NC5(c6ccc(Cl)cc6)CC5)nc(OCC(F)(F)F)n4)cc3)nc2cc1Cl` [Compound 3802], the pEC50 under setting [1] is 8.00 to 11.00.
For the compound `COC(=O)[C@H](CCCNC(=O)C(N)=O)NC(=O)c1ccc(Nc2nc(NC3(c4ccc(Cl)cc4)CC3)nc(OCC(F)(F)F)n2)cc1` [Compound 1012, (S)-methyl 5-(2-amino-2-oxoacetamido)-2-(4-(4-(1-(4-chlorophenyl)cyclopropylamino)-6-(2,2,2-trifluoroethoxy)-1,3,5-triazin-2-ylamino)benzamido)pentanoate], the pEC50 under setting [2] is 8.00 to 11.00.
Consider `O=C(NC/C(=N/C(=O)c1ccc(Nc2nc(NC3(c4ccc(Cl)cc4)CC3)nc(OCC(F)(F)F)n2)cc1)C(=O)O)C(=O)Nc1ccc(CCO)cc1` [Compound 3154], for which the pEC50 was 8.84 under setting [4] and 8.00 to 11.00 under setting [5].
Regarding `COC(=O)[C@H](CNC(=O)C(=O)Nc1ccc(N2CCOCC2)nc1)NC(=O)c1ccc(Nc2nc(NC3(c4ccc(Cl)cc4)CC3)nc(OCC(F)(F)F)n2)cc1` [Compound 3703], the pEC50 by setting is: under setting [6], 8.88; under setting [1], 8.00 to 11.00.
On to `CC(C)(CNC(=O)C(=O)Nc1cccc(Cl)c1)CNC(=O)c1ccc(Nc2nc(NC3(c4ccc(Cl)cc4)CC3)nc(OCC(F)(F)F)n2)cc1` [Compound 1561], for which the pEC50 under setting [2] was 8.00 to 11.00.
For the compound `Cn1nnnc1-c1cccc(NC(=O)C(=O)NCC[C@H](NC(=O)c2ccc(Nc3nc(NC4(c5ccc(Cl)cc5)CC4)nc(OCC(F)(F)F)n3)cc2)C(=O)O)c1` [Compound 3655], the pEC50 under setting [1] is 8.00 to 11.00.
On the same count and under the same terms, next, `CC(C)(CNC(=O)C(=O)Nc1cccc(C(=O)Nc2ccccc2)c1)CNC(=O)c1ccc(Nc2nc(NC3(c4ccc(Cl)cc4)CC3)nc(OCC(F)(F)F)n2)cc1` [Compound 3669]: 8.00 to 11.00.
Take `CC(C)c1cccc(NC(=O)C(=O)NCC[C@H](NC(=O)c2ccc(Nc3nc(NC4(c5ccc(Cl)cc5)CC4)nc(OCC(F)(F)F)n3)cc2)C(=O)O)c1` [Compound 3627]: the pEC50 is 10.00 under setting [6] and 8.00 to 11.00 under setting [1].
For the compound `COC(=O)[C@H](CNC(=O)C(=O)NCCn1cncn1)NC(=O)c1ccc(Nc2nc(NC3(c4ccc(Cl)cc4)CC3)nc(OCC(F)(F)F)n2)cc1` [Compound 1298], the pEC50 under setting [2] was 8.00 to 11.00.
In the case of `CCc1cccc(NC(=O)C(=O)NCC[C@@H](NC(=O)c2ccc(Nc3nc(NC4(c5ccc(Cl)cc5)CC4)nc(OCC(F)(F)F)n3)cc2)C(=O)OC)c1` [Compound 3573], under setting [5], the negative logarithm of the EC50 (pEC50) was 8.00 to 11.00.
Regarding `NC(=O)C(=O)N(CCO)CCCNC(=O)c1ccc(Nc2nc(NC3(c4ccc(Cl)cc4)CC3)nc(OCC(F)(F)F)n2)cc1` [Compound 3498], the pEC50 under setting [5] is 8.00 to 11.00.
In the case of `CCc1ccccc1NC(=O)C(=O)NCC(C)(C)CNC(=O)c1ccc(Nc2nc(NC3(c4ccc(Cl)cc4)CC3)nc(OCC(F)(F)F)n2)cc1` [Compound 3047], the pEC50 under setting [5] is 8.00 to 11.00.
Same read-out and setting: to `CC(C)(CNC(=O)C(=O)NCc1ccccc1Cl)CNC(=O)c1ccc(Nc2nc(NC3(c4ccc(Cl)cc4)CC3)nc(OCC(F)(F)F)n2)cc1` [Compound 3003] belongs 8.00 to 11.00.
For the compound `O=C(NC[C@H](NC(=O)c1ccc(Nc2nc(NC3(c4ccc(Cl)cc4)CC3)nc(OCC(F)(F)F)n2)cc1)C(=O)Cl)C(=O)Nc1cccc(OCc2ccccc2)c1` [Compound 3742], the pEC50 under setting [1] was 8.00 to 11.00.
As to `O=C(NCc1cccc(F)c1)C(=O)NC[C@H](NC(=O)c1ccc(Nc2nc(NC3(c4ccc(Cl)cc4)CC3)nc(OCC(F)(F)F)n2)cc1)C(=O)O` [Compound 1163], the pEC50 under setting [2] was 8.00 to 11.00.
In the case of `CC(C)(CNC(=O)C(=O)Nc1ccccc1Cl)CNC(=O)c1ccc(Nc2nc(NC3(c4ccc(Cl)cc4)CC3)nc(OCC(F)(F)F)n2)cc1` [Compound 1571], the negative logarithm of the EC50 (pEC50) was 10.30 under setting [3] and 8.00 to 11.00 under setting [2].
For the compound `Cc1nc(-c2cccc(NC(=O)C(=O)NCC[C@H](NC(=O)c3ccc(Nc4nc(NC5(c6ccc(Cl)cc6)CC5)nc(OCC(F)(F)F)n4)cc3)C(=O)O)c2)cs1` [Compound 3642], the pEC50 under setting [1] is 8.00 to 11.00.
For the compound `COC(=O)[C@H](CNC(=O)C(=O)NCCc1ccccc1OC)NC(=O)c1ccc(Nc2nc(NC3(c4ccc(Cl)cc4)CC3)nc(OCC(F)(F)F)n2)cc1` [Compound 1285], under setting [2], the pEC50 is 8.00 to 11.00.
